# Data reported in patent US11311508B2, “Medicinal composition for preventing or treating secondary hyperparathyroidism under maintenance dialysis” (EA Pharma Co., Ltd., priority 2017, dated 2022).
# Where a name gives a salt, the structure may show the parent alone.
# Tests used:
# [1] = in vivo; conditions: Crl:CD(SD), rat, iv, 30 mg/kg
# Protocol: The mean±standard error of the serum iPTH concentrations of all individuals prior to the administration (0 hour) was 231±16 pg/ml.
# Logistic curve fitting was conducted to establish the response relationship between the serum iPTH concentration 48 hours after the administration and the given dose.
# [2] = system: SHPT patients on maintenance hemodialysis; assay: Phase I/II clinical trial, repeated intravenous administration; format: in vivo, human
# Protocol: (§1) Targeting SHPT patients on maintenance hemodialysis, pharmacokinetics, pharmacodynamics and safety upon single or repeated intravenous administration of Compound A1 were examined by conducting a double-blind test using a placebo as a control.
# Repeated administration: Based on the clinically effective dose calculated in Example 5, the doses were given in 3 steps, namely, 0.05 mg, 0.1 mg and 0.2 mg. The trial drug was (intravenously) infused from the venous side of the dialysis circuit before the end of dialysis three times a week for 22 days (total of 9 times) starting from the first day of administration of the trial drug. Here, the trial drug was administered by diluting a required dose taken from the Compound A1 vial formulation prepared as follows with sterilized water for injection, and filling a syringe with the resultant in accordance with the dose to be administered.
# (§2) Each item was evaluated according to the predetermined evaluation schedule.
# (§3) A vial formulation encapsulating 1 mg of Compound A1 in terms of a dehydrate, and sodium chloride, disodium hydrogen phosphate dodecahydrate and sodium dihydrogen phosphate dihydrate as additives in 10 ml of sterilized water for injection
# [3] = system: healthy adults; assay: PK/PD analysis of P1 (three-compartment model, indirect response model incorporating rebound); format: in vivo, human; conditions: Homo sapiens; iPTH decrease, healthy adults, indirect response model incorporating rebound; ± standard error
# Protocol: (§4) A PK/PD analysis was conducted to estimate the clinically effective dose based on the results from P1. The dose of 2.5 mg seemed to be excessive and thus was eliminated from the analysis. PK (mean plasma concentration) and PD (mean iPTH level normalized by the levels of the placebo group and the 0-hour level) data of the doses of 0.01 mg, 0.1 mg and 1 mg were used. An indirect response model incorporating rebound was used for the PK/PD analysis.
# (§5) Based on the results of PK of the three given doses (0.01 mg, 0.1 mg and 1 mg) in P1, the three given doses were simultaneously analyzed using a three-compartment model to calculate the PK parameters (FIG. 5 and Table 2).
# (§6) Using the calculated PK parameters as an input function, PK/PD analysis was performed using an indirect response model incorporating rebound (FIG. 6) to calculate the EC50 value in healthy adults (FIG. 7 and Table 3).
# [4] = as above; format: in vivo, human; conditions: male, human, plasma, intravenous
# Protocol: as §4, §5, §6
# [5] = system: bilaterally nephrectomized rats; assay: Survival of bilaterally nephrectomized rats after single doses; format: in vivo, rat; conditions: five rats per group
# Description: After quarantine and acclimatization periods of 6 days, fifty-one 7-week-old rats (Crl: CD (SD), male) were fed a 100% sucrose diet ad libitum from four days before the surgery. On the day of the surgery, skin incisions were made on the back at the sites of the right and left kidneys under isoflurane anesthesia and the renal capsules were removed to ligate the renal arteries and veins and the ureters using threads before removing the right and left kidneys. A penicillin solution was given upon suturing, and 5 mL of physiological saline was intraperitoneally administered before returning the rats into the breeding cages.
# On a day after the bilaterally nephrectomy, the given doses were calculated based on the weight of the selected animals on that day. Group 1 was given a medium (physiological saline), Groups 2, 3 and 4 were given the Compound A1 solution (0.3, 3 and 30 mg/mL, respectively), and Groups 5, 6, 7 and 8 (5 rats per group) were given the comparative compound (0.3, 1, 3 and 10 mg/mL, respectively), each given a single dose of 1 ml/kg from the tail vein. Prior to the administration (0 hour), and 24 and 48 hours after the administration, approximately 300 μL of blood was collected without anesthesia from the tail vein using capillary tubes for obtaining the serum. The blood for obtaining the serum was left to stand at room temperature, and centrifuged in a high speed refrigerated microcentrifuge (10000 rpm, 5 min, 4° C.) within a period of 30 minutes to 2 hours after the blood collection to collect the serum.
# The number of rats in each group was five prior to the administration.
# [6] = system: normal rat; assay: Non-clinical studies of excretion and elimination; format: in vivo
# Description: Compound A1 is a CaSR activator used for intravenous administration.
# [7] = system: healthy Japanese male adults; assay: Phase I clinical trial (P1), single intravenous dose; format: in vivo, human
# Protocol: Thirty-two healthy Japanese male adults were given a single intravenous dose of the test drug (Compound A1) at 0.01 mg, 0.1 mg, 1.0 mg or 2.5 mg in a fasted state to study the pharmacokinetics, pharmacodynamics and safety by a double-blind test using a placebo as a control. Here, the trial drug was administered by diluting a required dose taken from the Compound A1 vial formulation prepared as follows with sterilized water for injection, and filling a syringe with the resultant in accordance with the dose to be administered.
# A vial formulation encapsulating 100 mg of Compound A1 in terms of a dehydrate, and sodium chloride, disodium hydrogen phosphate dodecahydrate and sodium dihydrogen phosphate dihydrate as additives in 10 ml of sterilized water for injection
# [8] = Emetogenicity in dogs (crossover, intravenous bolus); conditions: male, beagle, dog, in vivo, 1 mg/kg (no vomiting case)
# Protocol: A crossover trial was conducted with male beagles (Nosan Beagle, 14-87-month-old, weight: 10.2 kg-15.8 kg). The Compound A1 solutions used in Example 2 were given at 0.3, 1 and 10 mg/kg by bolus administration (0.5 mL/kg, 1 mL/sec) to 3-6 dogs per dose to confirm the manifestation of vomiting immediately after the administration. Administration was conducted once or twice a week with a 2-day interval. Administration was conducted prior to feeding. Symptoms prior to, immediately after, and 15 and 30 minutes after the administration were observed.
# [9] = Phase I/II clinical trial, single intravenous administration; format: in vivo, human; conditions: human, plasma, iv; single i.v. 0.025-0.8 mg; read-out: t½
# Protocol: as §1
# (§7) Single administration: Based on the clinically effective dose calculated in Example 5, the doses were given at 0.025 mg, 0.05 mg, 0.1 mg, 0.2 mg, 0.4 mg, 0.6 mg and 0.8 mg (7 steps). On the day of trial drug administration, the trial drug was intravenously administered as slow as possible within 60 seconds 2 to 4 hours following the end of dialysis. Here, the trial drug was administered by diluting a required dose taken from the Compound A1 vial formulation prepared as follows with sterilized water for injection, and filling a syringe with the resultant in accordance with the dose to be administered.
# as §2, §3
# [10] = system: SHPT patients on maintenance hemodialysis; assay: as above; format: in vivo, human
# Protocol: as §1, §7, §2, §3
# [11] = system: adenine-treated rat models; assay: PK/PD analysis (EC50) in adenine-treated rat models; format: in vivo; conditions: adenine-treated rat models (pathological rat models), same PK/PD analysis
# Description: (§8) EC50 value in patient with renal failure was estimated based on the calculated EC50 value in healthy adults and the results from the same analysis in normal rats and adenine-treated rat models (pathological rat models). […] Since the difference in the EC50 value between rats in normal state and pathological state is presumed to be caused by the changes in PK that are considered to greatly vary between normal state and pathological state, similar tendency is expected in human as well.
# [12] = system: normal rats; assay: PK/PD analysis (EC50) in normal rats; format: in vivo; conditions: Rattus norvegicus, same PK/PD analysis
# Description: as §8
# [13] = system: patients with renal failure; assay: Estimation of EC50, PK and clinically effective dose in patients with renal failure; design: species or system human; conditions: scaling factor applied to healthy adult EC50
# Description: as §8
# The result from PK fitting, and the contribution rate of renal elimination of the drug (3.2%) calculated using PK-sim (registered trademark) were used to simulate PK prediction in the patients with renal failure. […] As a result, administration of a dose of 0.06 mg/man was estimated to maintain a concentration higher than 1.4 ng/ml for 72 hours (FIG. 8).
smiles,measurement,setting,value
"Cc1c(Cl)cc(S(=O)(=O)[O-])cc1NC(=O)NC[C@H](N)C(=O)O.[Na+] [Compound A1, sodium 3-{[(2S)-2-amino-2-carboxyethyl]carbamoylamino}-5-chloro-4-methylbenzenesulfonate]",concentration at 48 h,[1],18800 ng/mL
same,accumulating property,[2],has not no accumulating property
same,trough concentration in plasma before the dialysis following the longest interval,[2],generally constant
same,maintenance of serum iPTH lowering effect,[2]; test period,maintained its effect with repeated administration
same,form present in the plasma,[2]; three times a week for 22 days,present mainly as an unchanged substance
same,EC50,[3],0.000421 ± 0.000167 µg/mL
same,Vd,"[4]; three-compartment model, doses 0.01, 0.1, 1 mg, ± standard error",0.0909 ± 0.0114 L/kg
same,C0,"[4]; assumed effective dose 0.1 mg/man, from simultaneous fitting of all doses",0.0436 µM
same,survival 48 hours after the administration,"[5]; all administered groups (0.3, 3 and 30 mg/kg)",all five rats survived
same,elimination from the plasma,[6]; intravenously administered to a normal rat,rapidly eliminated from the plasma
same,main route of excretion,[6]; non-clinical studies,renal excretion is the main route of excretion
same,elimination from plasma,"[7]; single i.v. 0.01, 0.1, 1.0 and 2.5 mg",rapidly eliminated
same,safety (side effects),[7]; single i.v. dose,non-severe and mild side effects such as vomiting were observed in the 1.0 mg and higher dose groups
same,serum iPTH concentration compared to before the administration,[7]; single i.v. dose,decreased in the 0.01 mg and higher dose groups
same,excretion into the urine,[7]; with respect to the given dose,excreted into the urine mostly as unchanged substances
same,C0,[8],18.8 µM
same,half-life,[9],65 to 122 h
same,lowering of plasma concentration immediately after dialysis vs just before the dialysis,[10]; hemodialysis performed 66 hours after the administration,75-81%
same,nausea observed (non-severe and mild),[10]; single administration,in the 0.6 mg and higher dose groups
same,vomiting observed (non-severe and mild),[10]; single administration,in the 0.4 mg and higher dose groups
same,duration of serum iPTH lowering effect after the administration,"[10]; single administration, until just before the dialysis",up to 66 hours
same,EC50,[11],0.0748 µg/mL
same,EC50,[12],< 0.0229 µg/mL
same,EC50 value estimated in the patients with renal failure,[13],> 0.0014 µg/mL
"CC(=O)N[C@H](CSSC[C@H](N)C(=O)O)C(=O)N[C@H](C)C(=O)N[C@H](CCCNC(=N)N)C(=O)N[C@H](CCCNC(=N)N)C(=O)N[C@H](CCCNC(=N)N)C(=O)N[C@H](C)C(=O)N[C@H](CCCNC(=N)N)C(N)=O [comparative compound, etelcalcetide (Ac-c(C) arrrar-NH2) TFA salt]",survival 48 hours after the administration,[5]; 3 mg/kg group,four survived
same,survival 48 hours after the administration,[5]; 10 mg/kg group,one survived
